Measured values reported in paper PMC6286390, “Discovering de novo peptide substrates for enzymes using machine learning” (Nature Communications, 2018).
Entries after “also recorded” stand apart in the source; their conditions may differ.

What was measured:
B. subtilis Sfp = assay: SPOT cellulose membrane peptide labeling with TAMRA-CoA by Sfp; type: biochemical, Bacillus subtilis; conditions: 10 µM PPTase, 40 µM TAMRA-CoA, 0.01% Triton X, 15 µM BSA, 50 mM Tris-HCl pH 8.0, 10 mM MgCl2, 16 h, 37 °C, fluorescence ex 532 nm/em 580 nm
Method: (§1) The peptides were synthesized on an amino-PEG-cellulose 10×15 cm^2 membrane and synthesized automatically by MultiPep RSi (INTAVIS Bioanalytical Instruments AG). After Fmoc cleavage with 20% 4-methyl piperidine (Sigma) in dimethylformamide (DMF), activated with 1 equiv. hydroxybenzotriazole and 2 equiv. N-methylpyrrolidone (NMP), and directly spotted on the membrane; after 15 min this step was repeated. The membrane was washed with DMF (3 × 3 min). Solutions of the Fmoc amino acids in NMP were spotted on the membrane (0.6 M solutions; 0.8 M solutions for C, H, N, Q, and R; triple coupling, 15 min each). The Fmoc group was removed from the spots, and the sequences of the peptides were completed using the standard SPOT synthesis protocol and followed by an N-terminal tag. […]
(§2) Synthesized membranes were deprotected with cleavage cocktail consisting of 94% trifluoroacetic acid (TFA), 2.5% water, 1% triisopropylsilane (Sigma), and 2.5% 1,2-ethanedithiol (Sigma) shaking at 2 h at room temperature. […] The membranes were rinsed liberally with TBST buffer, 0.1% TFA, and distilled deionized water before imaging on a Typhoon TRIO Variable Mode Imager (GE Healthcare BioSciences) at 50-µm resolution with 532 nm green laser excitation and 580 nm emission filter and a photomultiplier tube setting of 350 V. The membrane images were analyzed by the ImageJ software[37],[38].

S. coelicolor AcpS = assay: SPOT cellulose membrane peptide labeling with TAMRA-CoA by AcpS; type: biochemical, Streptomyces coelicolor; conditions: 10 µM PPTase, 40 µM TAMRA-CoA, 0.01% Triton X, 15 µM BSA, 50 mM Tris-HCl pH 8.0, 10 mM MgCl2, 16 h, 37 °C, fluorescence ex 532 nm/em 580 nm
Method: as §1, §2

| Sequence | labeling of membrane-bound peptide by Sfp (substrate / hit) (B. subtilis Sfp) | labeling of membrane-bound peptide by AcpS (substrate / hit) (S. coelicolor AcpS) |
| --- | --- | --- |
| AVKMESLEYLDTM [4F01, Sfp-type peptide hit identified by POOL, round 4] | Sfp-type peptide hits; also recorded: specific to Sfp | – |
| IHDGADSVVWLWSNC | neither a substrate for Sfp nor AcpS | neither a substrate for Sfp nor AcpS |
| WPEEGIESFMSVPPP [4T25, AcpS-type peptide hit identified by POOL, round 4] | – | AcpS-type peptide hits; also recorded: specific to AcpS |
